Reference: patent publication US20090105270A1, “Kinase inhibition and anticancer therapy” (priority 2007, published 2009)

Experiments:
Assay type in all cases: biochemical
Settings in all cases: 40 min; read-out: percentage of enzyme activity that remains
c-RAF(h) = target: T1, c-RAF(h) (Homo sapiens, UniProt P04049, Y340D/Y341D); test: Upstate kinase activity inhibition assay c-RAF(h)
T1 construct: purchased Upstate (KinaseProfiler service)

Ron(h) = target: T2, Ron(h) (Homo sapiens, UniProt Q04912); test: Upstate kinase activity inhibition assay Ron(h)
T2 construct: purchased Upstate (KinaseProfiler service)

Ros(h) = target: T3, Ros(h) (Homo sapiens, UniProt P08922); test: Upstate kinase activity inhibition assay Ros(h)
T3 construct: purchased Upstate (KinaseProfiler service)
T3 sequence (P08922 28-2347): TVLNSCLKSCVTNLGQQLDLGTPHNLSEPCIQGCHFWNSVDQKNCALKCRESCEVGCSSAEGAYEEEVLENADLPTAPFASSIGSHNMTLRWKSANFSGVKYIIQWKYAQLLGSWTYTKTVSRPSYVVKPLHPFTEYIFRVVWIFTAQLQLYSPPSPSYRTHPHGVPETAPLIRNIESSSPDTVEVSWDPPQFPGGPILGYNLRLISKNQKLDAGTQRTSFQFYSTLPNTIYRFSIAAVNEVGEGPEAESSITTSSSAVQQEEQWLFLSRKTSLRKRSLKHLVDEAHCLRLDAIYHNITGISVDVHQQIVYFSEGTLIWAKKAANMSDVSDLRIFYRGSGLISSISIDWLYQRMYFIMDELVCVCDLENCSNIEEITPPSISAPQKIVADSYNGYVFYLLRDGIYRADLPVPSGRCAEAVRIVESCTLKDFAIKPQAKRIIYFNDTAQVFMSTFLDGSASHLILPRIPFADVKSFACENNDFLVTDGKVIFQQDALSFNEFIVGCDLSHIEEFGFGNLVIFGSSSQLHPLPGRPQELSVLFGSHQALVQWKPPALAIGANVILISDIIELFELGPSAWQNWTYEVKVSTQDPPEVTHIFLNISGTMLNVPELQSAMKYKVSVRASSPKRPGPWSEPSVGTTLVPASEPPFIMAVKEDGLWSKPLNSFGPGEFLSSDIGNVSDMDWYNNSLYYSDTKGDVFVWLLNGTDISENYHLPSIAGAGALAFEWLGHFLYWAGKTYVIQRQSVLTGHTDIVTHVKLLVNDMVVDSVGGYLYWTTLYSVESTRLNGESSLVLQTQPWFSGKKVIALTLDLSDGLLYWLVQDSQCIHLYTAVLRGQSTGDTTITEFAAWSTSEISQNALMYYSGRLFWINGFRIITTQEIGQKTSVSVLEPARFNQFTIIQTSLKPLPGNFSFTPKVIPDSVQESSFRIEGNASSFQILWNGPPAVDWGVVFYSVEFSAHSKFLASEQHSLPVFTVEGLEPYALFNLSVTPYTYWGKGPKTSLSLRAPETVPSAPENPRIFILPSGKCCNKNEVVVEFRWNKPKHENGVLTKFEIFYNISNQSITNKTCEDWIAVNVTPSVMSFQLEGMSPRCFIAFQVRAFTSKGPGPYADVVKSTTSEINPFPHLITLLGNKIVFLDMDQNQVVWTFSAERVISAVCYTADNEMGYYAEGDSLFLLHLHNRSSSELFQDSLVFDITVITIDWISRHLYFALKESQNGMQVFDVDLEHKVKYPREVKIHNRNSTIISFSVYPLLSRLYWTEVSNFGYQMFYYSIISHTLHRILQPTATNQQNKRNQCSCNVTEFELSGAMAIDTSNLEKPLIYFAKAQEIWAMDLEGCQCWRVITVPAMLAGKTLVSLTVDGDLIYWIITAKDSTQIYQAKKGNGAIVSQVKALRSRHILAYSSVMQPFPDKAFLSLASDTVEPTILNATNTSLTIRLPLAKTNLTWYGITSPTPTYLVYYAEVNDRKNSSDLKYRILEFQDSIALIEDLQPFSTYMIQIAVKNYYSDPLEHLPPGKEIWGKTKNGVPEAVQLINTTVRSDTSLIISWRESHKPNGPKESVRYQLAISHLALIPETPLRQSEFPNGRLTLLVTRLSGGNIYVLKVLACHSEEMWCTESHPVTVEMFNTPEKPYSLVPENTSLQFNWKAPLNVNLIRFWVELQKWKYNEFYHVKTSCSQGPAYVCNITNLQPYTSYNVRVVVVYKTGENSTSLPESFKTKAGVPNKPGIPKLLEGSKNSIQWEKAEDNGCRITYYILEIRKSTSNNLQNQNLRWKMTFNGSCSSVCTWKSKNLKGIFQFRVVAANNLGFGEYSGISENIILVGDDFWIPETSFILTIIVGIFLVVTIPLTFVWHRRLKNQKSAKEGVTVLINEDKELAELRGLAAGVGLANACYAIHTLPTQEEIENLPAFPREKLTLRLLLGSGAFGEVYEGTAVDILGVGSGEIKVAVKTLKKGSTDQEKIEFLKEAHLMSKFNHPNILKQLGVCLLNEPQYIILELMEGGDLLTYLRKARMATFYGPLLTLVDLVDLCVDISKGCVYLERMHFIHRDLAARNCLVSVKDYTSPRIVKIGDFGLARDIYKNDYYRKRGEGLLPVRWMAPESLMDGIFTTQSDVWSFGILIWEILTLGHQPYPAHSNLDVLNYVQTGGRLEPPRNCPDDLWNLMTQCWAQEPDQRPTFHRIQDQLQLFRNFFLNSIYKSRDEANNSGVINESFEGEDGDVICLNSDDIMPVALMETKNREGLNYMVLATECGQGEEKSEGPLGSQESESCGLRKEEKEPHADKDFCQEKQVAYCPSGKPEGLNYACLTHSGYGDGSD

T1 sequence (P04049 306-648 Y340D/Y341D limits assumed): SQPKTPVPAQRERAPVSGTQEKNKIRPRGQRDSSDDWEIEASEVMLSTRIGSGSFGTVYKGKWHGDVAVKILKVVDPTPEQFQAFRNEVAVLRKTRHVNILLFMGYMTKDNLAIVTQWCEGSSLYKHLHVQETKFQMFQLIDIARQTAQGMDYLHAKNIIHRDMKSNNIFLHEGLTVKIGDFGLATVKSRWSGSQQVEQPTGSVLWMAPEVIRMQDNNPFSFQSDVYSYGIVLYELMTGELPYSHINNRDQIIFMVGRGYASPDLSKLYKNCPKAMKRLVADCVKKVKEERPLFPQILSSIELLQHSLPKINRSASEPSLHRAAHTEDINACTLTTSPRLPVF
T2 sequence (Q04912 25-1400): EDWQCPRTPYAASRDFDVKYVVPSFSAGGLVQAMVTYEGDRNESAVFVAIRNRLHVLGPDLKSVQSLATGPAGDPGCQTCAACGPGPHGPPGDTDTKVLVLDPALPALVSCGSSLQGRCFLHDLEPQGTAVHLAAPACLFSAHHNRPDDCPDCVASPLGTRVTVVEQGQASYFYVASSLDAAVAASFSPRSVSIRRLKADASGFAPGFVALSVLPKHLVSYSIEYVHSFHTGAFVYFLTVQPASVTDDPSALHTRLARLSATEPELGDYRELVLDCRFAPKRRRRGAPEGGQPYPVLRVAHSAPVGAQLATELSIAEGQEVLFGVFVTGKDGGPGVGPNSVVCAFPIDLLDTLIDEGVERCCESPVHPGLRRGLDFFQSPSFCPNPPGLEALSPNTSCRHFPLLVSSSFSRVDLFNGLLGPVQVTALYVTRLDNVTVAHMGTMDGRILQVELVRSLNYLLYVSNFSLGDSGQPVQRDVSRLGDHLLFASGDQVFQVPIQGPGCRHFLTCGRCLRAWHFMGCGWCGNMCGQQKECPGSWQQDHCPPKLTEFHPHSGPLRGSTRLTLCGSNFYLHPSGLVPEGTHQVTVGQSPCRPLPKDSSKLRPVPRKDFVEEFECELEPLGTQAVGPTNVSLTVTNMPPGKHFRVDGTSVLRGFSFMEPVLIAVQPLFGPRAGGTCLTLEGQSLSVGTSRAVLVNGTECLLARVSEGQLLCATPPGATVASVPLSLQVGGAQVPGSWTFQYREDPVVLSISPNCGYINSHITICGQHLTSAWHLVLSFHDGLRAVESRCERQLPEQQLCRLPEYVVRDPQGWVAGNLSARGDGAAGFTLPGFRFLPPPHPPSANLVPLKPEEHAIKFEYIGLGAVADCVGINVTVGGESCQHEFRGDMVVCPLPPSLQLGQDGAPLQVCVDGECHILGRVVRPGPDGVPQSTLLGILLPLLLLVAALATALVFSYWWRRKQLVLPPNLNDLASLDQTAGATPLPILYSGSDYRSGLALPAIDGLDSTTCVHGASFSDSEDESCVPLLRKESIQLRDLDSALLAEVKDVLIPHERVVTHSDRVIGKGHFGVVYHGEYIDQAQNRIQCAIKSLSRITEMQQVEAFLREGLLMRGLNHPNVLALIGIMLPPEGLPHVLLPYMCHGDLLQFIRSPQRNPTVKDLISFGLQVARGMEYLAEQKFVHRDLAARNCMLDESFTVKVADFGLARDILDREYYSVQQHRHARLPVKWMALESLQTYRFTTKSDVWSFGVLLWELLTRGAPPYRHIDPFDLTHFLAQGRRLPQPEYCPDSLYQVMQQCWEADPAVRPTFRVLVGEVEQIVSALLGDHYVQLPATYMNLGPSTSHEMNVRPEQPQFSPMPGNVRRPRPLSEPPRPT

In the case of `Cc1cc(Nc2cc(N3CCN(C)CC3)nc(Sc3ccc(NC(=O)C4CC4)cc3)n2)n[nH]1` [Compound E, Cyclopropane carboxylic acid {4-[4-(4-methyl-piperazin-1-yl)-6-(5-methyl-2H-pyrazol-3-ylamino)-pyrimidin-2-ylsulphanyl]-phenyl}-amide], the remaining activity at 0.2 µM (c-RAF(h)) is reported as 106%, the remaining activity at 4 µM (c-RAF(h)) is reported as 100% and the remaining activity at 0.2 µM (Ron(h)) is reported as 95%. For the same compound, the remaining activity at 4 µM (Ron(h)) was 48% and the remaining activity at 4 µM (Ros(h)) was 80%.
